Experimental data reported in PubChem BioAssay (NCI).
Values joined by “and” are separate entries in the source; they are usually repeats but may differ in a detail not shown here. Equal values may be shown once.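 96-well plates; 48 h exposure; 5 concentrations. Endpoints by linear interpolation between flanking doses. Not reached: highest tested concentration assigned. GI50 marks 50% less growth. TGI: total growth inhibition.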

Tests used:
Experiment in all cases: growth of human tumour cells (NCI), 48 h
[1] = system: COLO 205 colon
[2] = system: HT29 colon
[3] = system: SR leukemia
[4] = system: K-562 leukemia
[5] = system: NCI-H522 lung
[6] = system: RXF 393 renal
[7] = system: LXFL 529 NSCLC
[8] = system: MALME-3M melanoma
[9] = system: IGROV1 ovarian
[10] = system: ACHN renal
[11] = system: MOLT-4 leukemia
[12] = system: SF-268 CNS
[13] = system: NCI-H23 lung
[14] = system: UACC-62 melanoma
[15] = system: SNB-19 CNS
[16] = system: SK-OV-3 ovarian
[17] = system: HOP-62 NSCLC
[18] = system: SNB-75 CNS
[19] = system: CCRF-CEM leukemia
[20] = system: OVCAR-4 ovarian
[21] = system: NCI-H460 lung
[22] = system: KM12 colon
[23] = system: SF-295 CNS
[24] = system: SK-MEL-2 melanoma
[25] = system: UO-31 renal
[26] = system: OVCAR-5 ovarian
[27] = system: KM20L2 colon
[28] = system: HOP-92 NSCLC
[29] = system: M19-MEL melanoma
[30] = system: UACC-257 melanoma
[31] = system: HL-60(TB) leukemia
[32] = system: U251 CNS
[33] = system: SF-539 CNS
[34] = system: SNB-78 CNS
[35] = system: RPMI-8226 leukemia
[36] = system: SK-MEL-28 melanoma
[37] = system: OVCAR-3 ovarian
[38] = system: HCT-116 colon
[39] = system: NCI-H226 lung
[40] = system: HCC-2998 colon
[41] = system: CAKI-1 renal
[42] = system: DMS 114 small cell lung
[43] = system: OVCAR-8 ovarian
[44] = system: TK-10 renal
[45] = system: A549 NSCLC
[46] = system: LOX IMVI melanoma
[47] = system: DMS 273 small cell lung
[48] = system: SW-620 colon
[49] = system: SK-MEL-5 melanoma
[50] = system: M14 melanoma
[51] = system: DLD-1 colon
[52] = system: 786-0 renal
[53] = system: SN12C renal
[54] = system: XF 498 CNS
[55] = system: HCT-15 colon
[56] = system: DU-145 prostate
[57] = system: BT-549 breast
[58] = system: MDA-N
[59] = system: T-47D breast
[60] = system: MDA-MB-231 breast
[61] = system: EKVX NSCLC
[62] = system: MCF7 breast
[63] = system: HS 578T breast
[64] = system: A498 renal
[65] = system: MDA-MB-435
[66] = system: PC-3 prostate
[67] = system: NCI/ADR-RES ovarian

Q: COC(=O)C(Cc1ccccc1)N=Cc1c(O)c(O)c(C(C)C)c2cc(C)c(-c3c(C)cc4c(C(C)C)c(O)c(O)c(C=NC(Cc5ccccc5)C(=O)OC)c4c3O)c(O)c12 (stereo not given) was tested. Which TGI [1] did it give?
A: 92.9 µM

Q: And the TGI [2]?
A: 32.5 µM

Q: What about the TGI [3] of the same molecule?
A: 10.1 µM

Q: What about the TGI [4] of the same molecule?
A: > 100 µM

Q: And the TGI [5]?
A: 54.7 µM

Q: What about the TGI [6] of the same molecule?
A: 35 µM

Q: And the TGI [7]?
A: 38.5 µM

Q: What about the TGI [8] of the same molecule?
A: > 100 µM

Q: And the TGI [9]?
A: > 100 µM

Q: And the TGI [10]?
A: 74.3 µM

Q: What about the TGI [11] of the same molecule?
A: 11.6 µM

Q: And the TGI [12]?
A: > 100 µM

Q: What about the TGI [13] of the same molecule?
A: 74.6 µM

Q: And the TGI [14]?
A: 55.9 µM

Q: And the TGI [15]?
A: > 100 µM

Q: What about the TGI [16] of the same molecule?
A: 81 µM

Q: And the TGI [17]?
A: > 100 µM

Q: What about the TGI [18] of the same molecule?
A: > 100 µM

Q: What about the TGI [19] of the same molecule?
A: 38.5 µM

Q: What about the TGI [20] of the same molecule?
A: 64.5 µM

Q: What about the TGI [21] of the same molecule?
A: 51.4 µM

Q: What about the TGI [22] of the same molecule?
A: 39.7 µM

Q: And the TGI [23]?
A: 35.6 µM

Q: And the TGI [24]?
A: 44 µM

Q: What about the TGI [25] of the same molecule?
A: 80.7 µM

Q: What about the TGI [26] of the same molecule?
A: 49.3 µM

Q: What about the TGI [27] of the same molecule?
A: 55.3 µM

Q: And the TGI [28]?
A: 77 µM

Q: And the TGI [29]?
A: > 100 µM

Q: What about the TGI [30] of the same molecule?
A: 63 µM

Q: And the TGI [31]?
A: 59 µM

Q: What about the TGI [32] of the same molecule?
A: 55.2 µM

Q: And the TGI [33]?
A: 43.6 µM

Q: And the TGI [34]?
A: 29.2 µM

Q: And the TGI [35]?
A: 92.3 µM

Q: What about the TGI [36] of the same molecule?
A: > 100 µM

Q: What about the TGI [37] of the same molecule?
A: 52.1 µM

Q: What does the source list for CC(=O)CC(=O)ON(C)C(=O)Cc1ccccc1?
A: TGI [1]: > 100 µM; TGI [38]: > 100 µM; TGI [2]: > 100 µM; TGI [3]: > 100 µM; TGI [39]: > 100 µM; TGI [4]: > 100 µM; TGI [5]: > 100 µM; TGI [6]: > 100 µM; TGI [40]: > 100 µM; TGI [7]: > 100 µM; TGI [8]: > 100 µM; TGI [9]: > 100 µM; TGI [41]: > 100 µM; TGI [42]: > 100 µM; TGI [10]: > 100 µM; TGI [43]: > 100 µM; TGI [11]: > 100 µM; TGI [12]: > 100 µM; TGI [13]: > 100 µM; TGI [14]: > 100 µM; TGI [15]: > 100 µM; TGI [16]: > 100 µM; TGI [44]: > 100 µM; TGI [17]: > 100 µM; TGI [45]: > 100 µM; TGI [46]: > 100 µM; TGI [18]: > 100 µM; TGI [47]: > 100 µM; TGI [19]: > 100 µM; TGI [48]: > 100 µM; TGI [20]: > 100 µM; TGI [49]: > 100 µM; TGI [21]: > 100 µM; TGI [22]: > 100 µM; TGI [23]: > 100 µM; TGI [50]: > 100 µM; TGI [51]: > 100 µM; TGI [25]: > 100 µM; TGI [26]: > 100 µM; TGI [27]: > 100 µM; TGI [28]: > 100 µM; TGI [29]: > 100 µM; TGI [52]: > 100 µM; TGI [53]: > 100 µM; TGI [54]: > 100 µM; TGI [30]: > 100 µM; TGI [31]: > 100 µM; TGI [32]: > 100 µM; TGI [33]: > 100 µM; TGI [34]: > 100 µM; TGI [35]: > 100 µM; TGI [55]: > 100 µM; TGI [36]: > 100 µM; TGI [37]: > 100 µM

Q: What does the source list for CCCC(CCC)C(=O)O?
A: GI50 [1]: > 100 µM; TGI [1]: > 100 µM and 10300 µM; GI50 [38]: > 100 µM; TGI [38]: > 20000 µM; GI50 [2]: > 100 µM; TGI [2]: > 100 µM and 12400 µM; GI50 [3]: > 100 µM; TGI [3]: > 20000 µM; GI50 [39]: > 20000 µM; TGI [39]: > 20000 µM; GI50 [4]: > 100 µM; TGI [4]: > 20000 µM; GI50 [56]: > 100 µM; TGI [56]: > 20000 µM; GI50 [57]: > 100 µM; TGI [57]: > 20000 µM; GI50 [5]: > 100 µM; TGI [5]: > 20000 µM; GI50 [6]: > 100 µM; TGI [6]: > 100 µM and 14600 µM; GI50 [40]: > 100 µM; TGI [40]: > 100 µM and 16700 µM; TGI [58]: > 100 µM; GI50 [59]: > 100 µM; TGI [59]: > 20000 µM; GI50 [8]: > 100 µM; TGI [8]: > 20000 µM; GI50 [9]: > 100 µM; TGI [9]: > 20000 µM; GI50 [41]: > 100 µM; TGI [41]: > 20000 µM; GI50 [10]: > 100 µM; TGI [10]: > 100 µM and 17400 µM; GI50 [43]: > 100 µM; TGI [43]: > 20000 µM; GI50 [11]: > 100 µM; TGI [11]: > 20000 µM; GI50 [12]: > 100 µM; TGI [12]: > 100 µM and 12000 µM; GI50 [13]: > 20000 µM; TGI [13]: > 20000 µM; GI50 [14]: > 100 µM; TGI [14]: > 20000 µM; GI50 [60]: > 100 µM; TGI [60]: > 20000 µM; GI50 [15]: > 20000 µM; TGI [15]: > 20000 µM; GI50 [16]: > 20000 µM; TGI [16]: > 20000 µM; GI50 [44]: > 100 µM; TGI [44]: > 20000 µM; GI50 [17]: > 20000 µM; TGI [17]: > 20000 µM; GI50 [45]: > 100 µM; TGI [45]: > 20000 µM; GI50 [46]: > 100 µM; TGI [46]: > 20000 µM; GI50 [18]: > 100 µM; TGI [18]: > 100 µM and 18400 µM; GI50 [19]: > 100 µM; TGI [19]: > 20000 µM; GI50 [48]: > 100 µM; TGI [48]: > 20000 µM; GI50 [20]: > 100 µM; TGI [20]: > 20000 µM; TGI [49]: 9570 µM; GI50 [21]: > 100 µM; TGI [21]: > 20000 µM; GI50 [22]: > 100 µM; TGI [22]: > 20000 µM; GI50 [23]: > 100 µM; TGI [23]: > 20000 µM; GI50 [50]: 19900 µM; TGI [50]: > 20000 µM; GI50 [24]: > 100 µM; TGI [24]: > 20000 µM; GI50 [25]: > 100 µM; TGI [25]: > 20000 µM; GI50 [61]: > 20000 µM; TGI [61]: > 20000 µM; GI50 [26]: > 20000 µM; TGI [26]: > 20000 µM; GI50 [28]: > 100 µM; TGI [28]: > 20000 µM; GI50 [62]: > 100 µM; TGI [62]: > 20000 µM; TGI [63]: > 20000 µM; GI50 [52]: > 20000 µM; TGI [52]: > 20000 µM; GI50 [53]: > 20000 µM; TGI [53]: > 20000 µM; GI50 [30]: > 100 µM; TGI [30]: > 20000 µM; GI50 [31]: > 100 µM; TGI [31]: > 20000 µM; GI50 [64]: > 100 µM; TGI [64]: > 100 µM and 4830 µM; GI50 [65]: > 100 µM; TGI [65]: > 20000 µM; GI50 [66]: > 100 µM; TGI [66]: > 20000 µM; GI50 [32]: > 100 µM; TGI [32]: > 20000 µM; GI50 [33]: > 100 µM; TGI [33]: > 20000 µM; GI50 [35]: > 100 µM; TGI [35]: > 20000 µM; GI50 [55]: > 100 µM; TGI [55]: > 20000 µM; GI50 [67]: > 100 µM; TGI [67]: > 20000 µM; TGI [36]: > 100 µM; GI50 [37]: > 100 µM; TGI [37]: > 20000 µM
